# Measured values as given in patent publication EP3560516A1, “COMBINATION THERAPY INCLUDING BETA-SITOSTEROL IN COMBINATION WITH AT LEAST ONE OF A BRAF INHIBITOR, A MEK INHIBITOR OR AN ERK INHIBITOR AND METHODS AND USE THEREOF” (Bergen Teknologioverføring AS, priority 2018, dated 2019).
# What was measured:
# H10 cells = assay: MTS viability assay; assay type: cell-based, human
# Source text: (§1) • Figure 1: In vivo drug screening. (Figure left) Number of brain metastases at T1-weighted MRI with contrast (Student's t-test). (Figure right) Kaplan-Meier survival plot (Mantel-Cox log-rank test). There was no significant difference between vehicle- and memantine-treated mice. * P < 0.05; ** P < 0.01. All values are given as the mean ± s.e.m. • Figure 2: In vivo validation of β-sitosterol treatment-1. (Figure left) Number of brain metastases assessed by T1-weighted MRI with contrast (Student's t-test). The mean number of brain metastases in the vehicle group decreased slightly from seven to eight weeks as four mice with the greatest number of brain metastases were sacrificed between these observation points. (Figure right) Kaplan-Meier survival plot (Mantel-Cox log-rank test). The experiment was terminated at 100 days, and three mice in the β-sitosterol group were still alive and healthy. * P < 0.05; ** P < 0.01; **** P < 0.0001. All values are given as the mean ± s.e.m. • Figure 3: In vivo validation of β-sitosterol on H1_DL2 brain metastasis-2. (Figure left) Body weight from week zero to eight. […] (Figure right) Volume of brain metastases at MRI (T1-weighted with contrast). Total volume of brain metastases per animal was compared at group level. Student's t-test: n.s. P ≥ 0.05, * P < 0.05, ** P < 0.01, *** P < 0.001, **** P < 0.0001. All values are given as the mean ± s.e.m. • Figure 4: In vivo validation of β-sitosterol on PC14-PE6-Br2 brain metastases. Mice were injected intracardially with 5 x 10^5 PC14-PE6-Br2 cells. Test groups received daily i.p. injections of 0.1 mL vehicle (olive oil; n =4) or β-sitosterol 5 mg/kg (n = 6). (Figure left) Total volume of brain metastases at MRI at three weeks (T1-weighted with contrast). Total volume of brain metastases per animal was compared at group level. (Figure right) Kaplan-Meier survival plot (Mantel-Cox log-rank test: *** P < 0.001). All values are given as the mean ± s.e.m. • Figure 5: In vitro and in vivo effects on additional melanoma metastatic cell lines. (Figure left) Half maximal inhibitory concentration (IC50) values for β-sitosterol, PLX4720 and the combination thereof in Melmet 1, Melmet 5 and A375 cell lines (n = 3). (Figure right) Subcutaneous tumor volume ([width2 x length]/2) in mice injected with […] Melmet 5 cells. Mice were from 2 weeks onwards given daily i.p. injections of 0.1 mL vehicle (olive oil), 20 mg/kg β-sitosterol in olive oil, 25 mg/kg PLX4720 in 0.05% DMSO, or a combination of the two latter (n = 8 in each group). […] After 24 hours, the drugs were added to the wells, incubated for 72 hours, and then viability was assessed using an MTS assay. […] After 24 hours, the drugs were added to the wells, incubated for 72 hours, and then viability was assessed using an MTS assay. […]
# MDA-MB-231 = assay: MTS viability assay; assay type: cell-based, human
# Source text: as §1
# four melanoma cell lines = assay: monolayer viability and tumorsphere assays; assay type: cell-based; conditions: among top 10 candidate compounds from cMap
# Source text: Based on RNA sequencing of tumors in brains, adrenals, bone and ovaries from mice, we defined a 108-gene brain metastasis signature using a comparative work-flow of independent analyses of gene expression profiles from brain versus other organ metastases in a human BRAF-mutant melanoma xenograft model. […] For further studies, we concentrated on the top 10 candidate anti-brain metastatic compounds. To test the efficacy of the candidate compounds, we performed monolayer viability and tumorsphere assays in four melanoma cell lines (Daphu I et al, Int J Mol Sci 2014;15:8773.8794, Netland IA et al, J Neurooncol 2016;129:57-66). IC50 values were generally lower in tumorspheres than in monolayers, and there was substantial variation in cell line sensitivity.
# brain metastases = assay: in vivo drug screening in human-to-mouse brain metastasis model; conditions: compared with vehicle-treated mice; for survival: Kaplan-Meier
# Source text: (§2) • Figure 1: In vivo drug screening. (Figure left) Number of brain metastases at T1-weighted MRI with contrast (Student's t-test). (Figure right) Kaplan-Meier survival plot (Mantel-Cox log-rank test). There was no significant difference between vehicle- and memantine-treated mice. * P < 0.05; ** P < 0.01. All values are given as the mean ± s.e.m. • Figure 2: In vivo validation of β-sitosterol treatment-1. (Figure left) Number of brain metastases assessed by T1-weighted MRI with contrast (Student's t-test). The mean number of brain metastases in the vehicle group decreased slightly from seven to eight weeks as four mice with the greatest number of brain metastases were sacrificed between these observation points. (Figure right) Kaplan-Meier survival plot (Mantel-Cox log-rank test). The experiment was terminated at 100 days, and three mice in the β-sitosterol group were still alive and healthy. * P < 0.05; ** P < 0.01; **** P < 0.0001. All values are given as the mean ± s.e.m. • Figure 3: In vivo validation of β-sitosterol on H1_DL2 brain metastasis-2. (Figure left) Body weight from week zero to eight. […] (Figure right) Volume of brain metastases at MRI (T1-weighted with contrast). Total volume of brain metastases per animal was compared at group level. Student's t-test: n.s. P ≥ 0.05, * P < 0.05, ** P < 0.01, *** P < 0.001, **** P < 0.0001. All values are given as the mean ± s.e.m. • Figure 4: In vivo validation of β-sitosterol on PC14-PE6-Br2 brain metastases. Mice were injected intracardially with 5 x 10^5 PC14-PE6-Br2 cells. Test groups received daily i.p. injections of 0.1 mL vehicle (olive oil; n =4) or β-sitosterol 5 mg/kg (n = 6). (Figure left) Total volume of brain metastases at MRI at three weeks (T1-weighted with contrast). Total volume of brain metastases per animal was compared at group level. (Figure right) Kaplan-Meier survival plot (Mantel-Cox log-rank test: *** P < 0.001). All values are given as the mean ± s.e.m. • Figure 5: In vitro and in vivo effects on additional melanoma metastatic cell lines. (Figure left) Half maximal inhibitory concentration (IC50) values for β-sitosterol, PLX4720 and the combination thereof in Melmet 1, Melmet 5 and A375 cell lines (n = 3). (Figure right) Subcutaneous tumor volume ([width2 x length]/2) in mice injected with […] Melmet 5 cells. Mice were from 2 weeks onwards given daily i.p. injections of 0.1 mL vehicle (olive oil), 20 mg/kg β-sitosterol in olive oil, 25 mg/kg PLX4720 in 0.05% DMSO, or a combination of the two latter (n = 8 in each group). Representative images of tumors at 44 days are shown in the right panel. Student's t-test: * P < 0.05, ** P < 0.01. Values are given as the mean ± s.e.m. • Figure 6: In vitro effects of other BRAF and MEK inhibitors on human melanoma brain metastatic cell lines. 5000 cells (human BRAF mutated melanoma brain metastatic cell lines H1, H9 or H10) were plated in each well of a 96 well dish. After 24 hours, the drugs were added to the wells, incubated for 72 hours, and then viability was assessed using an MTS assay. […] 5000 cells were plated in each well of a 96 well dish. After 24 hours, the drugs were added to the wells, incubated for 72 hours, and then viability was assessed using an MTS assay.
# We next investigated the efficacy of thiostrepton, memantine, and β-sitosterol using a highly standardized human-to-mouse brain metastasis model (Sundstrøm T et al, Cancer Res 2013;73:2445-2456). Drug treatment was commenced one week after tumor cell injections.
# Melmet 5 cells = assay: subcutaneous Melmet 5 melanoma model; assay type: in vivo, mice; conditions: daily i.p. from 2 weeks: 20 mg/kg β-sitosterol, 25 mg/kg PLX4720, or both
# Source text: (§3) • Figure 1: In vivo drug screening. (Figure left) Number of brain metastases at T1-weighted MRI with contrast (Student's t-test). (Figure right) Kaplan-Meier survival plot (Mantel-Cox log-rank test). There was no significant difference between vehicle- and memantine-treated mice. * P < 0.05; ** P < 0.01. All values are given as the mean ± s.e.m. • Figure 2: In vivo validation of β-sitosterol treatment-1. (Figure left) Number of brain metastases assessed by T1-weighted MRI with contrast (Student's t-test). The mean number of brain metastases in the vehicle group decreased slightly from seven to eight weeks as four mice with the greatest number of brain metastases were sacrificed between these observation points. (Figure right) Kaplan-Meier survival plot (Mantel-Cox log-rank test). The experiment was terminated at 100 days, and three mice in the β-sitosterol group were still alive and healthy. * P < 0.05; ** P < 0.01; **** P < 0.0001. All values are given as the mean ± s.e.m. • Figure 3: In vivo validation of β-sitosterol on H1_DL2 brain metastasis-2. (Figure left) Body weight from week zero to eight. […] After 24 hours, the drugs were added to the wells, incubated for 72 hours, and then viability was assessed using an MTS assay. […] After 24 hours, the drugs were added to the wells, incubated for 72 hours, and then viability was assessed using an MTS assay. […]
# H1_DL2 brain metastasis = assay: in vivo validation of β-sitosterol treatment, treatment commenced before cell injection; design: species or system mice
# Source text: as §2
# To validate our β-sitosterol treatment findings, we carried out a new and more extensive in vivo study in which treatment commenced before cell injection.
# [1] = tested on: PC14-PE6-Br2 brain metastases; assay: in vivo validation on lung adenocarcinoma brain metastases; design: species or system mice; conditions: 5 mg/kg daily i.p.
# Source text: • Figure 1: In vivo drug screening. (Figure left) Number of brain metastases at T1-weighted MRI with contrast (Student's t-test). (Figure right) Kaplan-Meier survival plot (Mantel-Cox log-rank test). There was no significant difference between vehicle- and memantine-treated mice. * P < 0.05; ** P < 0.01. All values are given as the mean ± s.e.m. • Figure 2: In vivo validation of β-sitosterol treatment-1. (Figure left) Number of brain metastases assessed by T1-weighted MRI with contrast (Student's t-test). The mean number of brain metastases in the vehicle group decreased slightly from seven to eight weeks as four mice with the greatest number of brain metastases were sacrificed between these observation points. (Figure right) Kaplan-Meier survival plot (Mantel-Cox log-rank test). The experiment was terminated at 100 days, and three mice in the β-sitosterol group were still alive and healthy. * P < 0.05; ** P < 0.01; **** P < 0.0001. All values are given as the mean ± s.e.m. • Figure 3: In vivo validation of β-sitosterol on H1_DL2 brain metastasis-2. (Figure left) Body weight from week zero to eight. […] After 24 hours, the drugs were added to the wells, incubated for 72 hours, and then viability was assessed using an MTS assay. […] After 24 hours, the drugs were added to the wells, incubated for 72 hours, and then viability was assessed using an MTS assay.
# H1 cells = assay: MTS viability assay; assay type: cell-based, human
# Source text: as §1
# H9 cells = assay: MTS viability assay; assay type: cell-based; conditions: Homo sapiens, H9, 72 h, read-out: cell viability
# Source text: as §3
# [2] = human, mda-mb-231 cells, 72 h, 35 µM
# [3] = MRI, treatment commenced one week after tumor cell injections
structure (smiles),measurement,setting,value
"CCCS(=O)(=O)Nc1ccc(F)c(C(=O)c2c[nH]c3ncc(-c4ccc(Cl)cc4)cc23)c1F [vemurafenib, reference compound]",cell viability,"H10 cells; h10 cells, 72 h, 50 µM",around 25%
same,cell viability,MDA-MB-231; [2],~73%
"C=C(NC(=O)C(=C)NC(=O)c1csc(C2=N[C@@H]3c4csc(n4)[C@H]4NC(=O)c5csc(n5)[C@H]([C@](C)(O)[C@@H](C)O)NC(=O)[C@H]5CSC(=N5)/C(=C/C)NC(=O)[C@H]([C@@H](C)O)NC(=O)c5csc(n5)[C@]3(CC2)NC(=O)[C@H](C)NC(=O)C(=C)NC(=O)[C@H](C)NC(=O)[C@H]([C@@H](C)CC)N[C@@H]2C=Cc3c([C@H](C)O)cc(nc3[C@H]2O)C(=O)O[C@@H]4C)n1)C(N)=O [thiostrepton, reference compound]",reducing viability and tumorsphere growth,four melanoma cell lines,most potent
same,survival,brain metastases,significantly shorter lifespan
"CC12CC3CC(C)(C1)CC(N)(C3)C2 [memantine, reference compound]",reducing viability and tumorsphere growth,four melanoma cell lines,most potent
same,survival,brain metastases,did not affect survival
"CCCS(=O)(=O)Nc1ccc(F)c(C(=O)c2c[nH]c3ncc(Cl)cc23)c1F [PLX4720, reference compound]",subcutaneous tumor growth,Melmet 5 cells,effective as monotherapies
CC[C@H](CC[C@@H](C)[C@H]1CC[C@H]2[C@@H]3CC=C4C[C@@H](O)CC[C@]4(C)[C@H]3CC[C@]12C)C(C)C [β-sitosterol],reducing viability and tumorsphere growth,four melanoma cell lines,most potent
same,survival,brain metastases,survived significantly longer
same,number of brain metastases,brain metastases; [3],significant reduction
same,volume of brain metastases,brain metastases; [3],significant reduction
same,survival,"H1_DL2 brain metastasis; Kaplan-Meier, compared with vehicle treatment, terminated at 100 days",significant survival benefit
same,volumes of brain metastases,"H1_DL2 brain metastasis; MRI T1-weighted with contrast, compared with vehicle group",significantly lower volumes
same,number of brain metastases,"H1_DL2 brain metastasis; T1-weighted MRI with contrast, compared with vehicle group",significantly fewer brain metastases
same,mice healthy and tumor-free,"H1_DL2 brain metastasis; at 100 days, evaluated by brain MRI and histology",three out of nine
same,average body weight,"H1_DL2 brain metastasis; at 100 days, three remaining mice, mean ± s.e.m.",26.7 ± 0.6 grams
same,body weight,"H1_DL2 brain metastasis; week zero to eight, vehicle-treated mice lost weight from four weeks onwards",maintained a stable body weight
same,survival,[1]; Kaplan-Meier,prolonged survival
same,brain metastatic burden,"[1]; MRI at three weeks, compared with vehicle",significant reduction
same,subcutaneous tumor growth,Melmet 5 cells,effective as monotherapies
same,cell viability,"H1 cells; 50uM beta-sitosterol, 5nM trametinib, 72 hours, compared with untreated cells",around 85%
same,cell viability,"H10 cells; 50uM beta-sitosterol, 5uM vemurafenib, 72 hours, compared to the untreated cells",around 80%
same,viability at 50 µM,H9 cells,85%
same,cell viability,"MDA-MB-231; 35uM beta-sitosterol, 0.5uM trametinib, 72 hours (Figure 7 left)",around 48%
same,cell viability,"MDA-MB-231; 35uM beta-sitosterol, 5uM vemurafenib, 72 hours (Figure 7 right)",around 44%
"CC(=O)Nc1cccc(-n2c(=O)n(C3CC3)c(=O)c3c(Nc4ccc(I)cc4F)n(C)c(=O)c(C)c32)c1 [trametinib, reference compound]",cell viability,"H1 cells; h1 cells, 72 h, 50 µM",~60%
same,cell viability,MDA-MB-231; [2],around 44%
